Data as given in patent US12281095B2, “Pesticidally active diazine-amide compounds” (SYNGENTA CROP PROTECTION AG, priority 2019, dated 2025).

What was measured:
Format in all cases: in vivo
[1] = tested on: Diabrotica balteata (Corn Root Worm); assay: Example B1: Diabrotica balteata (Corn Root Worm), sprayed maize sprouts; settings: 96 h, application rate of 200 ppm, L2 larvae, 4 days after infestation, read-out: control in at least one of the two categories (mortality or growth inhibition)
Description: Example B1: Diabrotica balteata (Corn Root Worm)
Maize sprouts placed onto an agar layer in 24-well microtiter plates were treated with aqueous test solutions prepared from 10′000 ppm DMSO stock solutions by spraying. After drying, the plates were infested with L2 larvae (6 to 10 per well). The samples were assessed for mortality and growth inhibition in comparison to untreated samples 4 days after infestation.

[2] = tested on: Chilo suppressalis (Striped Rice Stemborer); assay: Example B4: Chilo suppressalis (Striped Rice Stemborer), artificial diet; settings: 144 h, application rate of 200 ppm, L2 larvae, 6 days after infestation, read-out: control in at least one of the three categories (mortality, anti-feedant or growth inhibition)
Description: Example B4: Chilo suppressalis (Striped Rice Stemborer)
24-well microtiter plates with artificial diet were treated with aqueous test solutions prepared from 10′000 ppm DMSO stock solutions by pipetting. After drying, the plates were infested with L2 larvae (6-8 per well). The samples were assessed for mortality, anti-feeding effect, and growth inhibition in comparison to untreated samples 6 days after infestation. Control of Chilo suppressalis by a test sample is given when at least one of the categories mortality, anti-feedant effect, and growth inhibition is higher than the untreated sample.

[3] = tested on: Plutella xylostella (Diamond Back Moth); assay: Example B5: Plutella xylostella (Diamond Back Moth), artificial diet, 24-well; settings: 192 h, application rate of 200 ppm, eggs, 8 days after infestation, read-out: control in at least one of the two categories (mortality or growth inhibition)
Description: Example B5: Plutella xylostella (Diamond Back Moth)
24-well microtiter plates with artificial diet were treated with aqueous test solutions prepared from 10′000 ppm DMSO stock solutions by pipetting. After drying, Plutella eggs were pipetted through a plastic stencil onto a gel blotting paper and the plate was closed with it. The samples were assessed for mortality and growth inhibition in comparison to untreated samples 8 days after infestation.

[4] = tested on: Spodoptera littoralis (Egyptian Cotton Leaf Worm); assay: Example B9: Spodoptera littoralis (Egyptian Cotton Leaf Worm), sprayed cotton leaf discs; settings: foliar, 72 h, application rate of 200 ppm, L1 larvae, 3 days after infestation, read-out: control in at least one of the three categories (mortality, anti-feedant or growth inhibition)
[5] = tested on: Plutella xylostella (Diamondback Moth); assay: Example B13: Plutella xylostella (Diamondback Moth), artificial diet, 96-well; settings: 216 h, application rate of 500 ppm, eggs/L1 larvae, 9 days after infestation
Description: Example B13: Plutella xylostella (Diamondback Moth)
96-well microtiter plates containing artificial diet were treated with aqueous test solutions, prepared from 10′000 ppm DMSO stock solutions, by a liquid handling robot. After drying, eggs (˜30 per well) were infested onto a netted lid which was suspended above the diet. The eggs hatch and L1 larvae move down to the diet. The samples were assessed for mortality 9 days after infestation.

CC(NC(=O)c1cc(C(F)(F)F)nc(C2(C#N)CC2)c1)c1nccnc1-c1ccc(OCC(F)(F)F)cn1 (stereo not shown) [P23, 2-(1-cyanocyclopropyl)-N-[1-[3-[5-(2,2,2-trifluoroethoxy)-2-pyridyl]pyrazin-2-yl]ethyl]-6-(trifluoromethyl)pyridine-4-carboxamide]
≥ 80%: percent control (mortality or growth inhibition) at 200 ppm [1] | percent control (mortality, anti-feedant effect or growth inhibition) at 200 ppm [2] | percent control (mortality or growth inhibition) at 200 ppm [3] | percent control (mortality, anti-feedant effect or growth inhibition) at 200 ppm [4] | mortality at 500 ppm [5]

CC(NC(=O)c1cc(C(F)(F)F)cc(C(F)(F)C2CC2)c1)c1nccnc1-c1ncc(OCC(F)F)cn1 (stereo not shown) [P39, 3-[cyclopropyl(difluoro)methyl]-N-[1-[3-[5-(2,2-difluoroethoxy)pyrimidin-2-yl]pyrazin-2-yl]ethyl]-5-(trifluoromethyl)benzamide]
≥ 80%: percent control (mortality, anti-feedant effect or growth inhibition) at 200 ppm [2] | percent control (mortality or growth inhibition) at 200 ppm [3] | percent control (mortality, anti-feedant effect or growth inhibition) at 200 ppm [4] | mortality at 500 ppm [5]

CC(NC(=O)c1cc(C(F)(F)F)cc(S(=O)(=O)C(F)(F)F)c1)c1nccnc1-c1ncc(OC(F)F)cn1 (stereo not shown) [P19, N-[1-[3-[5-(difluoromethoxy)pyrimidin-2-yl]pyrazin-2-yl]ethyl]-3-(trifluoromethyl)-5-(trifluoromethylsulfonyl)benzamide]
≥ 80%: percent control (mortality or growth inhibition) at 200 ppm [1] | percent control (mortality, anti-feedant effect or growth inhibition) at 200 ppm [2] | percent control (mortality or growth inhibition) at 200 ppm [3] | percent control (mortality, anti-feedant effect or growth inhibition) at 200 ppm [4] | mortality at 500 ppm [5]

CC(NC(=O)c1cc(C(F)(F)F)nc(C2(C#N)CC2)c1)c1nccnc1-c1ccc(OC(F)F)cn1 (stereo not shown) [P1, 2-(1-cyanocyclopropyl)-N-[1-[3-[5-(difluoromethoxy)-2-pyridyl]pyrazin-2-yl]ethyl]-6-(trifluoromethyl)pyridine-4-carboxamide]
≥ 80%: percent control (mortality or growth inhibition) at 200 ppm [1] | percent control (mortality, anti-feedant effect or growth inhibition) at 200 ppm [2] | percent control (mortality or growth inhibition) at 200 ppm [3] | percent control (mortality, anti-feedant effect or growth inhibition) at 200 ppm [4]

CC(NC(=O)c1cc(C(F)(F)F)cc(S(=O)(=O)C(F)(F)F)c1)c1nccnc1-c1ccc(OCC(F)F)cn1 (stereo not shown) [P20, N-[1-[3-[5-(2,2-difluoroethoxy)-2-pyridyl]pyrazin-2-yl]ethyl]-3-(trifluoromethyl)-5-(trifluoromethylsulfonyl)benzamide]
≥ 80%: percent control (mortality, anti-feedant effect or growth inhibition) at 200 ppm [2] | mortality at 500 ppm [5]

CC(NC(=O)c1cc(C(F)(F)F)cc(C2(C#N)CC2)c1)c1nccnc1-c1ccc(OC(F)F)cn1 (stereo not shown) [P3, 3-(1-cyanocyclopropyl)-N-[1-[3-[5-(difluoromethoxy)-2-pyridyl]pyrazin-2-yl]ethyl]-5-(trifluoromethyl)benzamide]
≥ 80%: percent control (mortality or growth inhibition) at 200 ppm [1] | percent control (mortality, anti-feedant effect or growth inhibition) at 200 ppm [2] | percent control (mortality or growth inhibition) at 200 ppm [3] | percent control (mortality, anti-feedant effect or growth inhibition) at 200 ppm [4]

C[C@H](NC(=O)c1cc(C(F)(F)F)cc(C(F)(F)C2CC2)c1)c1nccnc1-c1ccc(C#N)cn1 [P42, N-[(1S)-1-[3-(5-cyano-2-pyridyl)pyrazin-2-yl]ethyl]-3-[cyclopropyl(difluoro)methyl]-5-(trifluoromethyl)benzamide]
≥ 80%: percent control (mortality or growth inhibition) at 200 ppm [1] | percent control (mortality, anti-feedant effect or growth inhibition) at 200 ppm [2] | percent control (mortality or growth inhibition) at 200 ppm [3] | percent control (mortality, anti-feedant effect or growth inhibition) at 200 ppm [4]

CC(NC(=O)c1cc(C(F)(F)F)cc(C2(C#N)CC2)c1)c1nccnc1-c1ccc(OCC(F)F)cn1 (stereo not shown) [P33, 3-(1-cyanocyclopropyl)-N-[1-[3-[5-(2,2-difluoroethoxy)-2-pyridyl]pyrazin-2-yl]ethyl]-5-(trifluoromethyl)benzamide]
≥ 80%: percent control (mortality or growth inhibition) at 200 ppm [1] | percent control (mortality, anti-feedant effect or growth inhibition) at 200 ppm [2] | percent control (mortality or growth inhibition) at 200 ppm [3] | percent control (mortality, anti-feedant effect or growth inhibition) at 200 ppm [4] | mortality at 500 ppm [5]

CC(NC(=O)c1cc(C(F)(F)F)cc(C(F)(F)C2CC2)c1)c1nccnc1-c1ccc(OCC(F)(F)F)cn1 (stereo not shown) [P31, 3-[cyclopropyl(difluoro)methyl]-N-[1-[3-[5-(2,2,2-trifluoroethoxy)-2-pyridyl]pyrazin-2-yl]ethyl]-5-(trifluoromethyl)benzamide]
≥ 80%: mortality at 500 ppm [5]

CC(NC(=O)c1cc(C2CC2)cc(C(F)(F)F)c1)c1nccnc1-c1ccc(OC(F)F)cn1 (stereo not shown) [P7, 3-cyclopropyl-N-[1-[3-[5-(difluoromethoxy)-2-pyridyl]pyrazin-2-yl]ethyl]-5-(trifluoromethyl)benzamide]
≥ 80%: percent control (mortality or growth inhibition) at 200 ppm [1] | percent control (mortality, anti-feedant effect or growth inhibition) at 200 ppm [2] | percent control (mortality or growth inhibition) at 200 ppm [3] | percent control (mortality, anti-feedant effect or growth inhibition) at 200 ppm [4]

CC(NC(=O)c1cc(C(F)(F)F)cc(C(C)(C)C#N)c1)c1nccnc1-c1ncc(OC(F)F)cn1 (stereo not shown) [P8, 3-(1-cyano-1-methyl-ethyl)-N-[1-[3-[5-(difluoromethoxy)pyrimidin-2-yl]pyrazin-2-yl]ethyl]-5-(trifluoromethyl)benzamide]
≥ 80%: percent control (mortality or growth inhibition) at 200 ppm [1] | percent control (mortality, anti-feedant effect or growth inhibition) at 200 ppm [2] | percent control (mortality or growth inhibition) at 200 ppm [3] | percent control (mortality, anti-feedant effect or growth inhibition) at 200 ppm [4]

CC(NC(=O)c1cc(C2CC2)cc(C(F)(F)F)c1)c1nccnc1-c1ncc(OC(F)F)cn1 (stereo not shown) [P41, 3-cyclopropyl-N-[1-[3-[5-(difluoromethoxy)pyrimidin-2-yl]pyrazin-2-yl]ethyl]-5-(trifluoromethyl)benzamide]
≥ 80%: percent control (mortality or growth inhibition) at 200 ppm [1] | percent control (mortality, anti-feedant effect or growth inhibition) at 200 ppm [2] | percent control (mortality or growth inhibition) at 200 ppm [3] | percent control (mortality, anti-feedant effect or growth inhibition) at 200 ppm [4] | mortality at 500 ppm [5]

CC(NC(=O)c1cc(C2CC2C(F)(F)F)cc(C(F)(F)F)c1)c1nccnc1-c1ncc(OCC(F)F)cn1 (stereo not shown) [P38, N-[1-[3-[5-(2,2-difluoroethoxy)pyrimidin-2-yl]pyrazin-2-yl]ethyl]-3-(trifluoromethyl)-5-[2-(trifluoromethyl)cyclopropyl]benza-mide]
≥ 80%: percent control (mortality or growth inhibition) at 200 ppm [1] | percent control (mortality, anti-feedant effect or growth inhibition) at 200 ppm [2] | percent control (mortality or growth inhibition) at 200 ppm [3] | percent control (mortality, anti-feedant effect or growth inhibition) at 200 ppm [4] | mortality at 500 ppm [5]

CC(NC(=O)c1cc(C2CC2)cc(C(F)(F)F)c1)c1nccnc1-c1ccc(OCC(F)(F)F)cn1 (stereo not shown) [P27, 3-cyclopropyl-N-[1-[3-[5-(2,2,2-trifluoroethoxy)-2-pyridyl]pyrazin-2-yl]ethyl]-5-(trifluoromethyl)benzamide]
≥ 80%: percent control (mortality or growth inhibition) at 200 ppm [1] | percent control (mortality, anti-feedant effect or growth inhibition) at 200 ppm [2] | percent control (mortality or growth inhibition) at 200 ppm [3] | mortality at 500 ppm [5]

CC(NC(=O)c1cc(C(F)(F)F)nc(C2(C#N)CC2)c1)c1nccnc1-c1ccc(C#N)cn1 (stereo not shown) [P16, 2-(1-cyanocyclopropyl)-N-[1-[3-(5-cyano-2-pyridyl)pyrazin-2-yl]eth-yl]-6-(trifluoromethyl)pyridine-4-carboxamide]
≥ 80%: percent control (mortality or growth inhibition) at 200 ppm [1] | percent control (mortality, anti-feedant effect or growth inhibition) at 200 ppm [2] | percent control (mortality or growth inhibition) at 200 ppm [3] | percent control (mortality, anti-feedant effect or growth inhibition) at 200 ppm [4]

CC(NC(=O)c1cc(C2CC2)cc(C(F)(F)F)c1)c1nccnc1-c1ccc(OCC(F)F)cn1 (stereo not shown) [P26, 3-cyclopropyl-N-[1-[3-[5-(2,2-difluoroethoxy)-2-pyridyl]pyrazin-2-yl]ethyl]-5-(trifluoromethyl)benzamide]
≥ 80%: percent control (mortality, anti-feedant effect or growth inhibition) at 200 ppm [2] | percent control (mortality or growth inhibition) at 200 ppm [3] | percent control (mortality, anti-feedant effect or growth inhibition) at 200 ppm [4] | mortality at 500 ppm [5]
